Assay results published in patent publication US6391904B1, “Iminoguanidine derivatives, preparation method, use as medicines” (Aventis Pharma S.A., priority 1998, dated 2002).

Biological target: human αvβ3 receptor (Homo sapiens, UniProt P05106+P06756)
Assay: Kistrin/Vitronectin Receptor (αvβ3) ELISA test
Assay type: binding
Conditions: Kistrin-coated plates, 3 hours at ambient temperature, 4B12-HRP detection, read-out: K/VnR IC50
Protocol: Pharmacological Test: Kistrin/Vitronectin Receptor (αvβ3) ELISA Test Protocol:
96-well MaxiSorp plates are coated overnight at […] with 100 μl of Kistrin at 1 μg/ml (dilution in coating buffer: 0.05M carbonate)/NaOH pH 9.6. The next day, the wells are emptied and the ligands (kistrin) are then fixed (fixation buffers: PBS containing 0.5% BSA (pH=7.4)) for 1 hour at ambient temperature under gentle agitation of 125 rpm. The wells are washed six times (washing buffer: PBS containing 0.05% Tween 20 (pH 7.7) then the following is added per well and in this order:
40 μl of incubation buffer
10 μl of the dilution of the product to be tested (the products are diluted in a 50:50 DMSO/water mixture)
50 μl of human αvβ3 receptor (cf Pytel et al. Methods Enzymol. (1987) 144 (Dilution in incubation buffer, adapted according to the batch of receptor and according to the ligand). The ligand, the αvβ3 receptor and the products to be studied are incubated for 3 hours at ambient temperature with gentle agitation of 125 rpm.
The wells are again washed six times, then incubated for 2 hours at ambient temperature with mild agitation of 125 rpm, in the presence of 100 μl of anti-receptor antibody coupled to a peroxidase (The 4B12-HRP antibody is diluted in incubation buffer (50 mM TRIS pH 7.4; 0.5% BSA; 0.05% Tween 20; 1 mM MnCl2; 50 μM CaCl2; 50 μM MgCl2; 100 mM NaCl). The dilution is to be adapted according to the batch of receptor.
The wells are then washed six times before measurement of the ligand-receptor bond is carried out using a peroxidase developer kit (TBM Microwell Peroxidase Substrate System Kirkegaard; Ref cat 50-76-00).
This kit contains a flask A of substrate (3,3′,5,5′-tetramethylebenzidine at 0.4 g/l) and a flask B (H2O2 to 0.02% in Citrate/Citric acid). Extemporaneously, one volume of A is mixed with one volume of B, then the reaction mixture is distributed at a rate of 100 μl/wells.
The enzymatic reaction develops between 6 to 10 minutes for Kistrin/αvβ3 then its development is stopped by the addition of 100 μl of 1M phosphoric acid. The optical density is determined at 450 nm.
Expression of the Results
The following curve is plotted: the bond percentage as a function of the logarithm of each concentration of the tested product.
For each product IC50 is determined according to the following formula: IC50=(B0+Bmin)/2 B0=Maximum bond in the absence of any product Bmin=Minimum bond in the presence of the highest concentration of the product.

human αvβ3 receptor, sequence (P06756 31-889 limits assumed): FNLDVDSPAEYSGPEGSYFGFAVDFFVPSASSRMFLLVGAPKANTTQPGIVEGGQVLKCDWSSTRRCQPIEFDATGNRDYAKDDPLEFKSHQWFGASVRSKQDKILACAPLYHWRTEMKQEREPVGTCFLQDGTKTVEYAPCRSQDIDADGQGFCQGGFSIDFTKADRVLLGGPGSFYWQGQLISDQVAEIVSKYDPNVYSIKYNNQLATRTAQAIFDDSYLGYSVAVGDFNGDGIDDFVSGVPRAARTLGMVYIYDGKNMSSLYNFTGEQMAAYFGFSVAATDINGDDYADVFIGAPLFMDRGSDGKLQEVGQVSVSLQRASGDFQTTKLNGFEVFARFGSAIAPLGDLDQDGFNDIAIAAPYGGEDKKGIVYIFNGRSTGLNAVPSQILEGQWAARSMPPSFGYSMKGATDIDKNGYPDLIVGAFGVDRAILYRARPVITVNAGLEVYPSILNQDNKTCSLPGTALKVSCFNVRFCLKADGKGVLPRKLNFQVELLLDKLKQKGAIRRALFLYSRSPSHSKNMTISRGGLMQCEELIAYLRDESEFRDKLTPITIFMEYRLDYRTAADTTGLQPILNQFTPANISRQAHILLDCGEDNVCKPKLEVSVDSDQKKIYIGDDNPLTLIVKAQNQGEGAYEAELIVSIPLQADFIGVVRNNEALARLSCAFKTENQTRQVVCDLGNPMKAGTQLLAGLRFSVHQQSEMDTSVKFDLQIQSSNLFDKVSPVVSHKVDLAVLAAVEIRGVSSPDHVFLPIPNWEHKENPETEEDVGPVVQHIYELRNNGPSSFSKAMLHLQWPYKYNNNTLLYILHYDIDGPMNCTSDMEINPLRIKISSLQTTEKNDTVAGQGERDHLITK
human αvβ3 receptor, sequence (P06756 891-1048 limits assumed): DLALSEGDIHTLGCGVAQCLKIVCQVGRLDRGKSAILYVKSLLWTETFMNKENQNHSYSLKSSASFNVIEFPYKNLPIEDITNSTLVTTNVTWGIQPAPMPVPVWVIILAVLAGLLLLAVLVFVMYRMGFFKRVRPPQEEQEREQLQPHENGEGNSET
human αvβ3 receptor, sequence (P05106 27-788): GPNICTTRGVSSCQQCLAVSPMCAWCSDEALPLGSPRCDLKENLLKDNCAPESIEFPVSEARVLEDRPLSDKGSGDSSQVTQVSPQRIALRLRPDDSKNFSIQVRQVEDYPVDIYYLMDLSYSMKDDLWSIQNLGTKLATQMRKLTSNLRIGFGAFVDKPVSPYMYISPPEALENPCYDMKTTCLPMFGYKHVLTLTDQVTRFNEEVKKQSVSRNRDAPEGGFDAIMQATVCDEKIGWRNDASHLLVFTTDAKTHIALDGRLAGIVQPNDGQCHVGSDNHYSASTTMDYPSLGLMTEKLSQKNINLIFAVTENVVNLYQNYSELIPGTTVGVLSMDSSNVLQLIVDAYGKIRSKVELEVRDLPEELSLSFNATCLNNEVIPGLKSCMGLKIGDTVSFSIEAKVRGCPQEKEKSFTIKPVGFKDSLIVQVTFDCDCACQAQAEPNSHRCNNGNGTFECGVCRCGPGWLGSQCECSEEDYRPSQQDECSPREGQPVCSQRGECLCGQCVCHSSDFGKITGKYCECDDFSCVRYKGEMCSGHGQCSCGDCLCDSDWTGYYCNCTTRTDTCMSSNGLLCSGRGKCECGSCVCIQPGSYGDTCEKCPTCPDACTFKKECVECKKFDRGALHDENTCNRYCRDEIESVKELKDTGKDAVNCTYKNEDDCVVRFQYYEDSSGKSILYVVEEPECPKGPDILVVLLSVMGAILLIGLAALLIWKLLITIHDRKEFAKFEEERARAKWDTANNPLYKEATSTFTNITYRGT

| Structure (SMILES) | IC50 [µM] |
| --- | --- |
| CC(CCc1ccc(OCCC(NC(=O)OCc2ccccc2)C(=O)O)cc1)=NNC(=N)N (mixture of isomers) [ex 2, O-[4-[3-[(Aminoiminomethyl)hydrazono]butyl]phenyl]-N-[(phenylmethoxy)carbonyl]-homoserine] | 1.35 |
| O=C(NC(CCOc1cccc(CC/C=N/NC2=NCCN2)c1)C(=O)O)OCc1ccccc1 (stereo not drawn) [ex 12, O-[3-[3-[(4,5-Dihydro-1H-imidazol-2-yl) hydrazono]propyl]-phenyl]-N-[(phenylmethoxy)carbonyl]-homoserine] | 0.96 |
| N=C(N)NN=CCCc1cccc(OCCC(NC(=O)OCc2ccccc2)C(=O)O)c1 (mixture of isomers) [ex 11, O-[3-[3-[(Aminoiminomethyl)hydrazono]propyl]phenyl]-N-[(phenylmethoxy)carbonyl]-homoserine] | 3.25 |
| N=C(N)NN=CCCc1ccc(OCCC(NC(=O)OCc2ccccc2)C(=O)O)cc1 (mixture of isomers) [ex 4, O-[4-[3-[(Aminoiminomethyl)hydrazono]propyl]phenyl]-N-[(phenylmethoxy)carbonyl]-homoserine] | 0.45 |
| CC(CCc1cccc(OCCC(NC(=O)OCc2ccccc2)C(=O)O)c1)=NNC1=NCCN1 (mixture of isomers) [ex 9, O-[3-[3-[(4,5-Dihydro-1H-imidazol-2-yl)hydrazono]butyl]-phenyl]-N-[(phenylmethoxy)carbonyl]-homoserine] | 2 |

Compounds with a lower IC50, results first:

| IC50 [µM] | Structure (SMILES) |
| --- | --- |
| 0.355 | CC(Cc1cccc(OCCC(NC(=O)OCc2ccccc2)C(=O)O)c1)=NNC1=NCCN1 (mixture of isomers) [ex 10, O-[3-[2-[(4,5-Dihydro-1H-imidazol-2-yl) hydrazono]propyl]-phenyl]-N-[(phenylmethoxy)carbonyl]-homoserine] |
| 0.022 | C/C(Cc1ccc(OCCC(NC(=O)OCc2ccccc2)C(=O)O)c(F)c1)=N\NC1=NCCN1 (racemic) [ex 7, O-[4-[2-[(4,5-Dihydro-1H-imidazol-2-yl)hydrazono]propyl]-2-fluorophenyl]-N-[(phenylmethoxy)carbonyl]-homoserine] |
| 0.022 | CC(Cc1ccc(OCCC(NC(=O)OCc2ccccc2)C(=O)O)cc1)=NNC1=NCCN1 (mixture of isomers) [ex 5] |
| 0.292 | O=C(NC(CCOc1ccc(/C=N/NC2=NCCN2)cc1)C(=O)O)OCc1ccccc1 (stereo not drawn) [ex 13] |
| 0.012 | COc1cc(C/C(C)=N/NC2=NCCN2)ccc1OCCC(NC(=O)OCc1ccccc1)C(=O)O (racemic) [ex 6, O-[4-[2-[(4,5-Dihydro-1H-imidazol-2-yl)hydrazono]propyl]-2-methoxyphenyl]-N-[(phenylmethoxy)carbonyl]-homoserine] |
| 0.15 | CC(CCc1ccc(OCCC(NC(=O)OCc2ccccc2)C(=O)O)cc1)=NNC1=NCCN1 (mixture of isomers) [ex 1, O-[4-[3-[(4,5-Dihydro-1H-imidazol-2-yl)hydrazono]butyl]-phenyl]-N-[(phenylmethoxy)carbonyl]-homoserine.] |
| 0.11 | O=C(NC(CCOc1ccc(CC/C=N\NC2=NCCN2)cc1)C(=O)O)OCc1ccccc1 (racemic) [ex 3, O-[4-[3-[(4,5-Dihydro-1H-imidazol-2-yl)hydrazono]propyl]-phenyl]-N-[(phenylmethoxy)carbonyl]-homoserine] |
